Patent US5716797A, “Stable two-part reagent for the measurement of creatine kinase activity” (Wako Pure Chemical Industries, Ltd., priority 1995, dated 1998)

Legend:
[1] = Solubility of SH compounds in the enzyme solution; details: as CK reactivator in the enzyme solution
[2] = biological target: T1, creatine kinase (CK) in human serum (Homo sapiens, UniProt P06732); experiment: Inhibitory effect of oxidized products of SH compounds on CK activity (HK/G6PDH UV method, NAC 26 mM as reactivator); assay type: biochemical; details: for CK activity value: NAC 26 mM, 37° C.
T1 construct: Five fresh human serum samples were used; from tissue; host or cells: fresh human serum
T1 sequence (P06732 whole entry): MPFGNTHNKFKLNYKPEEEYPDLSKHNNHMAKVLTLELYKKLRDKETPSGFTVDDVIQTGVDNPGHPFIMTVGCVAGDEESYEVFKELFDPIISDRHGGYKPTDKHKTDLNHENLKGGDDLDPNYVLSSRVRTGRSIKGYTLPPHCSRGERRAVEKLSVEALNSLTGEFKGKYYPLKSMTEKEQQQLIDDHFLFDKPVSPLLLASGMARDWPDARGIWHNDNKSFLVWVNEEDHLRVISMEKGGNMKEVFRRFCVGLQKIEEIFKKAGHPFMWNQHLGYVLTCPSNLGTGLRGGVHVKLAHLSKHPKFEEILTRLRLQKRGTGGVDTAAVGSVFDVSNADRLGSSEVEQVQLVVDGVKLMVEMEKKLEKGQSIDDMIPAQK
Experimental: Investigation on the inhibitory effect of oxidized products of SH compounds on CK activity
Thus, oxidized products of the SH compounds, respectively, were obtained.
NAC (26 mM) as CK reactivator, each 5 mM of SH compound oxidized product obtained above, 2.6 mM of ADP, 3.9 u/ml of HK (available from Oriental Yeast Co., Ltd.), 8.0 u/ml of G6PDH (available from Oriental Yeast Co., Ltd.), 2.6 mM of NADP, 21 mM of glucose, 10 mM of magnesium acetate, 6.5 mM of AMP, 0.013 mM of APSA, 0.1% (w/v) of sodium azide and 2 mM of EDTA-2Na were dissolved in 128 mM imidazole-acetate buffer (pH 6.7). The thus obtained solutions were adjusted to pH 6.7 with sodium hydroxide to obtain enzyme solutions.
An enzyme solution containing no SH compound oxidized product was prepared as a control standard solution.
(§1) Five fresh human serum samples were used.
(§2) To 8 μl of each sample was added 320 μl of each enzyme solution, followed by preincubation for 5 minutes. Then, 80 μl of the substrate solution was added to initiate the reaction and the change of absorbance per minute was measured for 3 minutes from 2 minutes after the addition of the substrate solution. The CK activity value was calculated from the molecular extinction coefficient of the NADPH produced.
(§3) As a measuring apparatus, an Autoanalyzer Hitachi Model 7150 was used, and the measurement was carried out at 37° C. by use of dual wavelength (λ1 =405 nm, λ2 =340 nm).
Tables 2 and 3 show the CK activity values of the 5 samples in each case and the average thereof.

CK activity = details: Scand. J. Clin. Lab. Invest. 39, 737-742 (1979); cited from earlier work
[3] = tested on: creatine kinase (CK) in human serum; experiment: CK activity measured with enzyme solutions containing SH compounds as CK reactivator, fresh and after 1 month of storage (Example 1 / Comparative Example 1); assay type: biochemical; details: for CK activity value, Average: average of 5 samples; for CK activity, relative value: NAC just after preparation = 100%
Experimental: The resulting solution was adjusted to pH 6.7 with sodium hydroxide and stored at a predetermined temperature for a predetermined period. The thus obtained solution were used as enzyme solutions.
as §1, §2, §3
Enzyme solutions were prepared in the same manner as in Example 1 by use of the same reagents as in Example 1 except for using a predetermined concentration(s) of one or two SH compounds properly selected from the above-mentioned CK reactivators, in place of the CK reactivator(s) used in Example 1.
CK activity was measured in the same manner as in Example 1.

[4] = tested on: creatine kinase (CK) in human serum; experiment: CK activity measured with enzyme and substrate solutions stored at 10° C. for up to 7 months (Example 2 / Comparative Example 2); assay type: biochemical; details: for relative value of CK activity: enzyme solution prepared at the time of use = 100%
Experimental: An enzyme solution was prepared in the same manner as in Example 1 by use of the same reagents as in Example 1 except for using 100 mM of TG in place of the CK reactivator(s) used in Example 1.
Different 10 fresh human serum samples were used for different measuring operations.
CK activity was measured by the same procedure as described in Example 1 except for using the above-mentioned enzyme solution and substrate solution, both solutions stored at 10° C. for a predetermined time, and each of the above-mentioned samples.
An enzyme solution was prepared in the same manner as in Example 1 by use of the same reagents as in Example 1 except for using 26 mM of NAC in place of the CK reactivator(s) used in Example 1.
CK activity was measured by the same procedure as described in Example 1 except for using the above-mentioned enzyme solution and substrate solution, both solutions stored at 10° C. for a predetermined period, and each of the above-mentioned samples.

[5] = Sample 1, enzyme solution just after preparation, TG 100 mM, 2ME 26 mM, 2MES 26 mM, NAC 26 mM
[6] = Sample 1, enzyme solution stored at 10° C. for 1 month, TG 100, 2ME 26, 2MES 26, NAC 26, L-cysteine 6.5, GSH 12, TDG 5, DTT 6.5 mM
[7] = Sample 1, enzyme solution stored at 20° C. for 1 month, TG 100, 2ME 26, 2MES 26, NAC 26, L-cysteine 6.5, GSH 12, TDG 5, DTT 6.5 mM
[8] = Sample 2, enzyme solution just after preparation, TG 100 mM, 2ME 26 mM, 2MES 26 mM, NAC 26 mM
[9] = Sample 2, enzyme solution stored at 10° C. for 1 month, TG 100, 2ME 26, 2MES 26, NAC 26, L-cysteine 6.5, GSH 12, TDG 5, DTT 6.5 mM
[10] = Sample 2, enzyme solution stored at 20° C. for 1 month, TG 100, 2ME 26, 2MES 26, NAC 26, L-cysteine 6.5, GSH 12, TDG 5, DTT 6.5 mM
[11] = Sample 3, enzyme solution just after preparation, TG 100 mM, 2ME 26 mM, 2MES 26 mM, NAC 26 mM
[12] = Sample 3, enzyme solution stored at 10° C. for 1 month, TG 100, 2ME 26, 2MES 26, NAC 26, L-cysteine 6.5, GSH 12, TDG 5, DTT 6.5 mM
[13] = Sample 3, enzyme solution stored at 20° C. for 1 month, TG 100, 2ME 26, 2MES 26, NAC 26, L-cysteine 6.5, GSH 12, TDG 5, DTT 6.5 mM
[14] = Sample 4, enzyme solution just after preparation, TG 100 mM, 2ME 26 mM, 2MES 26 mM, NAC 26 mM
[15] = Sample 4, enzyme solution stored at 10° C. for 1 month, TG 100, 2ME 26, 2MES 26, NAC 26, L-cysteine 6.5, GSH 12, TDG 5, DTT 6.5 mM
[16] = Sample 4, enzyme solution stored at 20° C. for 1 month, TG 100, 2ME 26, 2MES 26, NAC 26, L-cysteine 6.5, GSH 12, TDG 5, DTT 6.5 mM
[17] = Sample 5, enzyme solution just after preparation, TG 100 mM, 2ME 26 mM, 2MES 26 mM, NAC 26 mM
[18] = Sample 5, enzyme solution stored at 10° C. for 1 month, TG 100, 2ME 26, 2MES 26, NAC 26, L-cysteine 6.5, GSH 12, TDG 5, DTT 6.5 mM
[19] = Sample 5, enzyme solution stored at 20° C. for 1 month, TG 100, 2ME 26, 2MES 26, NAC 26, L-cysteine 6.5, GSH 12, TDG 5, DTT 6.5 mM
[20] = enzyme solution just after preparation, TG 100 mM, 2ME 26 mM, 2MES 26 mM, NAC 26 mM
[21] = enzyme solution stored at 10° C. for 1 month, TG 100, 2ME 26, 2MES 26, NAC 26, L-cysteine 6.5, GSH 12, TDG 5, DTT 6.5 mM
[22] = enzyme solution stored at 20° C. for 1 month, TG 100, 2ME 26, 2MES 26, NAC 26, L-cysteine 6.5, GSH 12, TDG 5, DTT 6.5 mM
[23] = enzyme solution just after preparation
[24] = enzyme solution stored at 10° C. for 1 month
[25] = enzyme solution stored at 20° C. for 1 month
[26] = enzyme solution prepared at the time of use, 1 month measurement, 10 samples
[27] = enzyme solution prepared at the time of use, 3 month measurement, 10 samples
[28] = enzyme solution prepared at the time of use, 6 month measurement, 10 samples
[29] = enzyme solution prepared at the time of use, 7 month measurement, 10 samples
[30] = just after preparation, average of 10 human serum samples, TG 100 mM or NAC 26 mM
[31] = solutions stored at 10° C. for 1 month, 10 samples
[32] = solutions stored at 10° C. for 3 month, 10 samples
[33] = solutions stored at 10° C. for 6 month, 10 samples
[34] = solutions stored at 10° C. for 7 month, 10 samples

Structure (SMILES) | CK activity value [3, 5] [IU/l] | CK activity value [3, 6] [IU/l] | CK activity value [3, 7] [IU/l] | CK activity value [3, 8] [IU/l] | CK activity value [3, 9] [IU/l] | CK activity value [3, 10] [IU/l] | CK activity value [3, 11] [IU/l] | CK activity value [3, 12] [IU/l] | CK activity value [3, 13] [IU/l] | CK activity value [3, 14] [IU/l] | CK activity value [3, 15] [IU/l] | CK activity value [3, 16] [IU/l] | CK activity value [3, 17] [IU/l] | CK activity value [3, 18] [IU/l] | CK activity value [3, 19] [IU/l] | CK activity value, Average [3, 20] [IU/l] | CK activity value, Average [3, 21] [IU/l] | CK activity value, Average [3, 22] [IU/l] | CK activity, relative value [3, 23] [%] | CK activity, relative value [3, 24] [%] | also measured
Nc1cc(O)nc(S)n1.O [AHMP, 4-amino-6-hydroxy-2-mercaptopyrimidine monohydrate] | – | – | – | – | – | – | – | – | – | – | – | – | – | – | – | – | – | – | – | – | solubility [1]: low solubility
CC(=O)N[C@@H](CSSC[C@H](NC(C)=O)C(=O)O)C(=O)O [NAC oxidized product] | – | – | – | – | – | – | – | – | – | – | – | – | – | – | – | – | – | – | – | – | CK activity value ([2]; Sample 1 (fresh human serum), 5 mM SH compound oxidized product): 124 IU/l.; CK activity value ([2]; Sample 2, 5 mM SH compound oxidized product): 342 IU/l.; CK activity value ([2]; Sample 3, 5 mM SH compound oxidized product): 87 IU/l.; CK activity value ([2]; Sample 4, 5 mM SH compound oxidized product): 272 IU/l.; CK activity value ([2]; Sample 5, 5 mM SH compound oxidized product): 80 IU/l.; CK activity value, Average ([2]; average of 5 samples, 5 mM SH compound oxidized product): 181 IU/l.; activity at 5000 µM ([2]; average with enzyme solution containing no SH compound oxidized product = 100%, 5 mM oxidized product, read-out: CK activity, relative value): 80.1%; effect on CK activity (CK activity): inhibits CK activity
CC(=O)N[C@@H](CS)C(=O)O [NAC, N-acetylcysteine] | 183 | 184 | 166 | 544 | 550 | 499 | 151 | 152 | 136 | 56 | 55 | 50 | 87 | 88 | 78 | 204 | 206 | 186 | 100.0 | 101.0 | CK activity, relative value [3, 25]: 91.2%; measured value of CK activity after storage ([4]; after 3 months of storage at 10° C.): markedly lowered; average of CK activity values [4, 26]: 196 IU/l.; average of CK activity values [4, 27]: 192 IU/l.; average of CK activity values [4, 28]: 162 IU/l.; average of CK activity values [4, 29]: 192 IU/l.; average of CK activity values [4, 30]: 234 IU/l.; average of CK activity values [4, 31]: 190 IU/l.; average of CK activity values [4, 32]: 146 IU/l.; average of CK activity values [4, 33]: 64 IU/l.; average of CK activity values [4, 34]: 62 IU/l.; relative value of CK activity ([4]; stored at 10° C. for 1 month): 96.9%; relative value of CK activity ([4]; stored at 10° C. for 3 month): 76.0%; relative value of CK activity ([4]; stored at 10° C. for 6 month): 39.5%; relative value of CK activity ([4]; stored at 10° C. for 7 month): 32.3%
OCC(O)CS (stereo not shown) [TG, thioglycerol] | 184 | 183 | 180 | 553 | 556 | 549 | 151 | 154 | 152 | 58 | 57 | 57 | 88 | 88 | 88 | 207 | 208 | 206 | 101.4 | 101.9 | retaining CK-reactivating ability for a long period of time in an aqueous solution [3]: capable of retaining CK-reactivating ability for a long period of time; CK activity, relative value [3, 25]: 100.9%; average of CK activity values [4, 26]: 204 IU/l.; average of CK activity values [4, 27]: 200 IU/l.; average of CK activity values [4, 28]: 168 IU/l.; average of CK activity values [4, 29]: 192 IU/l.; average of CK activity values [4, 30]: 240 IU/l.; average of CK activity values [4, 31]: 202 IU/l.; average of CK activity values [4, 32]: 198 IU/l.; average of CK activity values [4, 33]: 168 IU/l.; average of CK activity values [4, 34]: 190 IU/l.; relative value of CK activity ([4]; stored at 10° C. for 1 month): 99.0%; relative value of CK activity ([4]; stored at 10° C. for 3 month): 99.0%; relative value of CK activity ([4]; stored at 10° C. for 6 month): 100.0%; relative value of CK activity ([4]; stored at 10° C. for 7 month): 99.0%
